Like-named read-outs stand apart in the source and are kept apart here.
Molecular target: human motilin receptor (Homo sapiens, UniProt O43193)
Test: Competitive radioligand binding assay (Method B1)
Set-up: purchased PerkinElmer 6110544; host or cells: CHO cells, stably transfected (membranes)
Method: Competitive Radioligand Binding Assay (Motilin Receptor)
• Membranes were prepared from CHO cells stably transfected with the human motilin receptor and utilized at a quantity of 1.5 μg/assay point.
Final Test Concentrations (N=11) for Compounds:
Compounds were provided frozen on dry ice at a stock concentration of 10 mM diluted in 100% DMSO and stored at −20° C. until the day of testing. On the test day, compounds were allowed to thaw at room temperature and than diluted in assay buffer according to the desired test concentrations. Under these conditions, the maximum final DMSO concentration in the assay was 0.5%.
Plates are sealed with TopSeal-A, vortexed gently and incubated at room temperature for 2 hours. The reaction is arrested by filtering samples through pre-soaked (0.3% polyethyleneimine, 2 h) Multiscreen Harvest plates using a Tomtec® Harvester (Tomtec, Hamden, Conn.)), washed 9 times with 500 μL of cold 50 mM Tris-HCl (pH 7.4), and than plates are air-dried in a fumehood for 30 minutes. A bottom seal is applied to the plates prior to the addition of 25 μL of MicroScint-0™ to each well.
Data are analyzed by GraphPad™ Prism (GraphPad Software, San Diego, Calif.) using a variable slope non-linear regression analysis.
where total and non-specific binding represent the cpm obtained in the absence or presence of 1 μM motilin, respectively.

[1] = Radioligand competitive binding assay, Method B1, values reported as ranges, read-out: Ki (binding activity)

Sequence of human motilin receptor (O43193 whole entry): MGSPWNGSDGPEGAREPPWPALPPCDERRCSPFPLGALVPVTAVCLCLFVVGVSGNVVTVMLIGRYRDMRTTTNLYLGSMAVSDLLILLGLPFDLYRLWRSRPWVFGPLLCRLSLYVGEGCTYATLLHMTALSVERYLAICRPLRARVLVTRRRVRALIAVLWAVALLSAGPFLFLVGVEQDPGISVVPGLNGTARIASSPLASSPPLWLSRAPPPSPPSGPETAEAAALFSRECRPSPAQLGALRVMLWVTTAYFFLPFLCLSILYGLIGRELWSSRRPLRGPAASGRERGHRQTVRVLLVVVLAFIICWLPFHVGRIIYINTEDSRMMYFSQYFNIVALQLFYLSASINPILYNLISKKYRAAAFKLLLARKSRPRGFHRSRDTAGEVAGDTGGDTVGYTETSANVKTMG

| Ki [1] [nM] | Structure (SMILES) | further results |
| --- | --- | --- |
| – | CCCC1NC(=O)C(C(C)C)NC(=O)C(Cc2ccc(O)cc2)NCCOc2ccccc2C=CCNC1=O (stereo not drawn) [Compound 1] | Ki ([125I]-motilin competition, CHO cell membranes with human motilin receptor, read-out: Binding activity (Ki)): 100 to 1000 nM |
| 1 to 100 | CCC[C@@H]1NC(=O)[C@@H](C(C)C)NC(=O)[C@@H](Cc2ccccc2)NCCOc2ccccc2/C=C/CNC1=O [Compound 2] | – |
| 100 to 1000 | CCCC1NC(=O)C(C)NC(=O)C(Cc2ccc(O)cc2)NCCOc2ccccc2C=CCNC1=O (stereo not drawn) [Compound 5] | – |
| 100 to 1000 | CSCCC1NC(=O)C(C(C)C)NC(=O)C(Cc2ccc(O)cc2)NCCOc2ccccc2C=CCNC1=O (stereo not drawn) [Compound 6] | – |
| 100 to 1000 | CCCCC1NC(=O)C(C(C)C)NC(=O)C(Cc2ccc(O)cc2)NCCOc2ccccc2C=CCNC1=O (stereo not drawn) [Compound 7] | – |
| 100 to 1000 | CC(C)C1NC(=O)C(Cc2ccc(O)cc2)NCCOc2ccccc2C=CCNC(=O)C(C(C)C)NC1=O (stereo not drawn) [Compound 9] | – |
| 1 to 100 | CC(C)C[C@@H]1NC(=O)[C@@H](C(C)C)NC(=O)[C@@H](Cc2ccc(O)cc2)NCCOc2ccccc2/C=C/CNC1=O [Compound 10] | – |
| 100 to 1000 | CCC1NC(=O)C(C(C)C)NC(=O)C(Cc2ccc(O)cc2)NCCOc2ccccc2C=CCNC1=O (stereo not drawn) [Compound 12] | – |
| 100 to 1000 | CC(C)CC1NC(=O)C(C(C)C)NC(=O)C(Cc2ccccc2)NCCOc2ccccc2CCCNC1=O (stereo not drawn) [Compound 13] | – |
| 100 to 1000 | CC(C)C[C@@H]1NC(=O)[C@@H](C(C)C)NC(=O)[C@@H](Cc2ccc3ccccc3c2)NCCOc2ccccc2CCCNC1=O [Compound 14] | – |
| 1 to 100 | CCC[C@@H]1NC(=O)[C@@H](C(C)C)NC(=O)[C@@H](Cc2cccc(Cl)c2)NCCOc2ccccc2CCCNC1=O [Compound 15] | – |
| 1 to 100 | CCC[C@@H]1NC(=O)[C@@H](C(C)C)NC(=O)[C@@H](Cc2ccc(Cl)cc2)NCCOc2ccccc2CCCNC1=O [Compound 16] | – |
| 100 to 1000 | CCC[C@@H]1NC(=O)[C@@H](C(C)C)NC(=O)[C@@H](Cc2c[nH]c3ccccc23)NCCOc2ccccc2CCCNC1=O [Compound 17] | – |
| 100 to 1000 | CCCC1NC(=O)C(CC)NC(=O)C(Cc2ccc(O)cc2)NCCOc2ccccc2CCCNC1=O (stereo not drawn) [Compound 18] | – |
| 1 to 100 | CCC[C@@H]1NC(=O)[C@@H](C(C)C)NC(=O)[C@@H](Cc2ccc(F)cc2)NCCOc2ccccc2CCCNC1=O [Compound 19] | – |
| 100 to 1000 | CC(C)CC1NC(=O)C(C(C)C)NC(=O)C(Cc2ccccc2)NCCOc2ccccc2C=CCNC1=O (stereo not drawn) [Compound 20] | – |
| 1 to 100 | CC(C)C[C@@H]1NC(=O)[C@@H](C(C)C)NC(=O)[C@@H](Cc2ccc3ccccc3c2)NCCOc2ccccc2/C=C/CNC1=O [Compound 21] | – |
| 1 to 100 | CCC[C@@H]1NC(=O)[C@@H](C(C)C)NC(=O)[C@@H](Cc2ccc(OC)cc2)NCCOc2ccccc2CCCNC1=O [Compound 22] | – |
| 1 to 100 | CCC[C@@H]1NC(=O)[C@@H](C(C)C)NC(=O)[C@@H](Cc2cccc3ccccc23)NCCOc2ccccc2CCCNC1=O [Compound 23] | – |
| 100 to 1000 | CCCC1NC(=O)C(C(C)C)NC(=O)C(Cc2ccccc2Cl)NCCOc2ccccc2CCCNC1=O (stereo not drawn) [Compound 25] | – |
| 1 to 100 | CC(C)[C@H]1NC(=O)[C@@H](Cc2ccc(O)cc2)NCCOc2ccccc2CCCNC(=O)[C@H](CC2CC2)NC1=O [Compound 26] | – |

| Ki [1] [nM] | Structure (SMILES) | further results |
| --- | --- | --- |
| 100 to 1000 | CCCC1NC(=O)C(C(C)C)NC(=O)C(Cc2cscn2)NCCOc2ccccc2CCCNC1=O (stereo not drawn) [Compound 27] | – |
| 100 to 1000 | CCCC1NC(=O)C(C(C)C)NC(=O)C(Cc2cccnc2)NCCOc2ccccc2CCCNC1=O (stereo not drawn) [Compound 28] | – |
| 100 to 1000 | CCCC1NC(=O)C(Cc2ccc(O)cc2)NC(=O)C(Cc2ccc(O)cc2)NCCOc2ccccc2C=CCNC1=O (stereo not drawn) [Compound 34] | – |
| 1000 to 10000 | CC1NC(=O)C(C(C)C)NC(=O)C(Cc2ccc(O)cc2)NCCOc2ccccc2C=CCNC1=O (stereo not drawn) [Compound 38] | – |
| 1000 to 10000 | CC(C)C1NC(=O)C(Cc2ccc(O)cc2)NCCOc2ccccc2C=CCNC(=O)CNC1=O (stereo not drawn) [Compound 40] | – |
| 1000 to 10000 | CCCC1NC(=O)C(Cc2ccccc2)NC(=O)C(Cc2ccc(O)cc2)NCCOc2ccccc2C=CCNC1=O (stereo not drawn) [Compound 41] | – |
| 100 to 1000 | CC(C)C1NC(=O)C(Cc2ccc(O)cc2)NCCOc2ccccc2C=CCNC(=O)C(c2ccccc2)NC1=O (stereo not drawn) [Compound 52] | – |
| 100 to 1000 | CC(C)C1NC(=O)C(Cc2ccc(O)cc2)NCCOc2ccccc2C=CCNC(=O)C(CCCCN)NC1=O (stereo not drawn) [Compound 55] | – |
| 100 to 1000 | CC(C)C1NC(=O)C(Cc2ccc(O)cc2)NCCOc2ccccc2C=CCNC(=O)C(CCCN)NC1=O (stereo not drawn) [Compound 56] | – |
| 100 to 1000 | CC(C)C1NC(=O)C(Cc2ccc(O)cc2)NCCOc2ccccc2C=CCNC(=O)C(CO)NC1=O (stereo not drawn) [Compound 57] | – |
| 100 to 1000 | CC(C)C1NC(=O)C(Cc2ccc(O)cc2)NCCOc2ccccc2C=CCNC(=O)C(Cc2ccc(O)cc2)NC1=O (stereo not drawn) [Compound 58] | – |
| 100 to 1000 | CC(C)C1NC(=O)C(Cc2ccc(O)cc2)NCCOc2ccccc2C=CCNC(=O)C(Cc2c[nH]c3ccccc23)NC1=O (stereo not drawn) [Compound 59] | – |
| 1000 to 10000 | COc1ccc(CC2NC(=O)C(C(C)C)NC(=O)C(Cc3ccc(O)cc3)NCCOc3ccccc3C=CCNC2=O)cc1 (stereo not drawn) [Compound 60] | – |
| 100 to 1000 | CCCC1NC(=O)C(C(C)C)NC(=O)C(Cc2ccc(O)cc2)NCCOc2cccc(c2)OCCNC1=O (stereo not drawn) [Compound 71] | – |
| 100 to 1000 | CC(C)C1NC(=O)C(Cc2ccc(O)cc2)NCCOc2ccccc2C=CCNC(=O)C(Cc2ccc3ccccc3c2)NC1=O (stereo not drawn) [Compound 72] | – |
| 1000 to 10000 | CCCC1NC(=O)C(Cc2ccc3ccccc3c2)NC(=O)C(Cc2ccc(O)cc2)NCCOc2ccccc2C=CCNC1=O (stereo not drawn) [Compound 76] | – |
| 1000 to 10000 | CCCCC1NC(=O)C(Cc2ccc(O)cc2)NCCOc2ccccc2C=CCNC(=O)C(CCC)NC1=O (stereo not drawn) [Compound 77] | – |
| 100 to 1000 | CCC(C)C1NC(=O)C(C(C)C)NC(=O)C(Cc2ccc(O)cc2)NCCOc2ccccc2C=CCNC1=O (stereo not drawn) [Compound 80] | – |
| 100 to 1000 | CCCC1NC(=O)C(C(C)C)NC(=O)C(Cc2ccc(O)cc2)NCCOc2ccccc2C=CCNC1=O (stereo not drawn) [Compound 85] | – |
| 100 to 1000 | CCCC1NC(=O)C(C(C)C)NC(=O)C(Cc2ccc(-c3ccccc3)cc2)NCCOc2ccccc2CCCNC1=O (stereo not drawn) [Compound 87] | – |
| 1000 to 10000 | CCCC1NC(=O)C(C(C)C)NC(=O)C(Cc2ccc(OC(C)(C)C)cc2)NCCOc2ccccc2CCCNC1=O (stereo not drawn) [Compound 88] | – |

| Ki [1] [nM] | Structure (SMILES) | further results |
| --- | --- | --- |
| 1000 to 10000 | CCCC1NC(=O)C(C(C)C)NC(=O)C(CCc2ccccc2)NCCOc2ccccc2CCCNC1=O (stereo not drawn) [Compound 89] | – |
| 1000 to 10000 | CCCC1NC(=O)C(C(C)C)NC(=O)C(C(c2ccccc2)c2ccccc2)NCCOc2ccccc2CCCNC1=O (stereo not drawn) [Compound 90] | – |
| 1000 to 10000 | CCCC1NC(=O)C(CCC)NC(=O)C(Cc2ccc(O)cc2)NCCOc2ccccc2CCCNC1=O (stereo not drawn) [Compound 91] | – |
| 100 to 1000 | CCCC1NC(=O)C(C(C)(C)C)NC(=O)C(Cc2ccc(O)cc2)NCCOc2ccccc2CCCNC1=O (stereo not drawn) [Compound 92] | – |
| 1000 to 10000 | CCCC1NC(=O)CCNC(=O)C(Cc2ccc(O)cc2)NCCOc2ccccc2CCCNC1=O (stereo not drawn) [Compound 96] | – |
| 1000 to 10000 | CCCC1NC(=O)C(C2CCCCC2)NC(=O)C(Cc2ccc(O)cc2)NCCOc2ccccc2CCCNC1=O (stereo not drawn) [Compound 97] | – |
| 1000 to 10000 | CCCC1NC(=O)C(C(C)C)NC(=O)C(Cc2ccc(O)cc2)NCCCNCCNC1=O (stereo not drawn) [Compound 98] | – |
| 1000 to 10000 | CCCC1NC(=O)C(C(C)C)NC(=O)C(Cc2ccc(O)cc2)NCCN(C)CCNC1=O (stereo not drawn) [Compound 99] | – |
| 100 to 1000 | CC(C)C1NC(=O)C(Cc2ccc(O)cc2)NCCOc2ccccc2CCCNC(=O)C(CCN)NC1=O (stereo not drawn) [Compound 109] | – |
| 100 to 1000 | CCCC1NC(=O)C(C(C)C)NC(=O)C(Cc2ccc(O)cc2)NCCOc2cccnc2CCCNC1=O (stereo not drawn) [Compound 110] | – |
| – | CCC[C@H](NC(=O)[C@H](NC(=O)[C@@H](Cc1ccc(O)cc1)NCCOc1ccccc1/C=C/CNC(C)=O)C(C)C)C(N)=O [Compound 121] | Binding activity (result in words, linear analogue of compound 1): lack of binding activity |
| 100 to 1000 | CCCC1NC(=O)C(C(C)C)NC(=O)C(Cc2ccccn2)NCCOc2ccccc2CCCNC1=O (stereo not drawn) [Compound 123] | – |
| 100 to 1000 | CCCC1NC(=O)C(C(C)C)NC(=O)C(Cc2ccncc2)NCCOc2ccccc2CCCNC1=O (stereo not drawn) [Compound 124] | – |
| 100 to 1000 | CCCC1NC(=O)C(C2CC2)NC(=O)C(Cc2ccc(O)cc2)NCCOc2ccccc2CCCNC1=O (stereo not drawn) [Compound 125] | – |
| 100 to 1000 | CCCC1NC(=O)C(C(C)C)NC(=O)C(Cc2c[nH]cn2)NCc2ccccc2Sc2ccccc2CNC1=O (stereo not drawn) [Compound 127] | – |
| 100 to 1000 | COc1ccc(C[C@H]2NCCOc3ccccc3CCCNC(=O)[C@H](CC(C)C)NC(=O)[C@@H](C(C)C)NC2=O)cc1 [Compound 128] | – |
| 100 to 1000 | CC(C)CC1NC(=O)C(C(C)C)NC(=O)C(Cc2cccs2)NCCOc2ccccc2CCCNC1=O (stereo not drawn) [Compound 130] | – |
| 1 to 100 | CC(C)C[C@@H]1NC(=O)[C@@H](C(C)C)NC(=O)[C@@H](Cc2cccc(Cl)c2)NCCOc2ccccc2CCCNC1=O [Compound 131] | – |
| 1 to 100 | CC(C)C[C@@H]1NC(=O)[C@@H](C(C)C)NC(=O)[C@@H](Cc2ccc(Cl)cc2)NCCOc2ccccc2CCCNC1=O [Compound 132] | – |
| 1 to 100 | CC(C)C[C@@H]1NC(=O)[C@@H](C(C)C)NC(=O)[C@@H](Cc2ccc(F)cc2)NCCOc2ccccc2CCCNC1=O [Compound 133] | – |
| 100 to 1000 | COc1ccc(CC2NCCOc3cccnc3CCCNC(=O)C(CC(C)C)NC(=O)C(C(C)C)NC2=O)cc1 (stereo not drawn) [Compound 135] | – |

— patent US20090240027A1, “INTERMEDIATES FOR MACROCYCLIC COMPOUNDS” (Tranzyme Pharma Inc., priority 2003, published 2009)
